Results reported in ChEMBL document CHEMBL3608240, “Tetrahydropyrrolo-diazepenones as inhibitors of ERK2 kinase” (Bioorg Med Chem Lett, 2015).

How the values were obtained:
[1] = Oral bioavailability in rat at 250 mg/kg; assay type: ADME, organism-based; conditions: in vivo
[2] = Clearance in rat at 1 mg/kg, iv relative to hepatic blood flow; assay type: ADME, organism-based, Liver; conditions: in vivo

O=C1c2cc(-c3ccnc(NC4CCOCC4)n3)cn2CCCN1[C@H](CO)c1ccccc1
bioavailability [1]: < 10%
clearance [2]: 79 mL/min/kg
